pIC50: −log10 of the molar value. In brackets after ≈: the same amount, converted by molar mass. Like-named read-outs stand apart in the source and are kept apart here.
Assays:
[1] = Antifungal assay, mycelium growth on PDA containing the chemical; details: P. placenta; for Antifungal index (%): Table 2
[2] = as above; details: F. pinicola; for Antifungal index (%): Table 2
[3] = Antifungal assay, mycelium growth on PDA (fungi); details: soft rot, Cu tolerant, and brown rot fungi
[4] = Antifungal assay, mycelium growth on PDA containing the chemical; details: G. trabeum
[5] = Antifungal assay, mycelium growth on PDA (fungi); details: 100 μg/ml; W. extensa, P placenta, L. sulphureus, G. trabeum and F. pinicola
[6] = Antifungal activity on paper (CNS 2690, TAPPI T487 cm-93); details: A. niger, 14 days
[7] = Antifungal assay, mycelium growth on PDA containing the chemical; details: A. taxa; for Antifungal index (%): Table 2
[8] = as above; details: W. extensa; for Antifungal index (%): Table 2
[9] = as above; details: T. versicolor
[10] = as above; details: S. commune; for Antifungal index (%): Table 2
[11] = Antifungal activity on paper (CNS 2690, TAPPI T487 cm-93); details: C. globosum, 14 days
[12] = Antifungal assay, mycelium growth on PDA containing the chemical; details: C. globosum; for Antifungal index (%): Table 2
[13] = as above; details: L. sulphureus
[14] = Antifungal assay, mycelium growth on PDA (fungi)
[15] = Antifungal activity on paper (CNS 2690, TAPPI T487 cm-93); details: A. terreus, 14 days
[16] = Antifungal assay, mycelium growth on PDA containing the chemical; details: L. betulina; for Antifungal index: Example 3, FIG. 2(A)
[17] = Example 1, FIG. 1(A), read-out: IC50 (concentration that inhibited 50% of the mycelium growth)
[18] = 100 μg/cm^2 on filter paper, listed as octyl gallate
[19] = 400 μg/cm^2 on filter paper, listed as octyl gallate

## CCCCCCCCOC(=O)c1cc(O)c(O)c(O)c1 [Octyl gallate, octyl gallate]
[1]; 25 μg/ml
  Antifungal index (%): 58%
[1]; 50 μg/ml
  Antifungal index (%): 75%
[1]; 100 μg/ml
  Antifungal index (%): 82%
[1]; 200 μg/ml
  Antifungal index (%): 84%
[1]; Table 3
  IC50 value: <25 µg/mL
[2]; 25 μg/ml
  Antifungal index (%): 52%
[2]; 50 μg/ml
  Antifungal index (%): 78%
[2]; 100 μg/ml
  Antifungal index (%): 94%
[2]; 200 μg/ml
  Antifungal index (%): 100%
[2]; Table 3
  IC50 value: <25 µg/mL
[3]
  IC50 value: less than 50 μg/ml
[4]; 25 μg/ml, Example 3, FIG. 2(B)
  Antifungal index: 30%
[4]; 50 μg/ml, Table 2
  Antifungal index (%): 49%
[4]; 100 μg/ml, Table 1
  Antifungal index (%): 85 ± 26.2%
[4]; 100 μg/ml, Table 2
  Antifungal index (%): 77%
[4]; 200 μg/ml, Table 2
  Antifungal index (%): 93%
[4]; [17]
  pIC50: 3.62
[4]; Table 3
  IC50 value: 50.8 µg/mL (≈ 180 µM)
[5]
  inhibition (antifungal index), span over five fungi: 75˜96%
[6]; 100 μg/cm^2 on filter paper
  Percent inhibition ratio: 72 ± 7.6%
[6]; [18]
  Percent inhibition ratio: 72%
[6]; 400 μg/cm^2 on filter paper
  Percent inhibition ratio: 99 ± 1.0%
[6]; [19]
  Percent inhibition ratio: 99%
[7]; 25 μg/ml
  Antifungal index (%): 73%
[7]; 50 μg/ml
  Antifungal index (%): 100%
[7]; 200 μg/ml
  Antifungal index (%): 100%
[7]; Table 3
  IC50 value: <25 µg/mL
[8]; 25 μg/ml
  Antifungal index (%): 3%
[8]; 50 μg/ml
  Antifungal index (%): 50%
[8]; 100 μg/ml
  Antifungal index (%): 75%
[8]; 200 μg/ml
  Antifungal index (%): 64%
[8]; Table 3
  IC50 value: 50 µg/mL (≈ 177 µM)
[9]; 25 μg/ml, Table 2
  Antifungal index (%): 37%
[9]; 50 μg/ml, Table 2
  Antifungal index (%): 50%
[9]; 100 μg/ml, Table 1
  Antifungal index (%): 69 ± 9.1%
[9]; 100 μg/ml, Table 2
  Antifungal index (%): 69%
[9]; 200 μg/ml, Table 2
  Antifungal index (%): 85%
[9]; [17]
  pIC50: 3.80
[9]; Table 3
  IC50 value: 173 µg/mL (≈ 613 µM)
[10]; 25 μg/ml
  Antifungal index (%): 16%
[10]; 50 μg/ml
  Antifungal index (%): 40%
[10]; 100 μg/ml
  Antifungal index (%): 60%
[10]; 200 μg/ml
  Antifungal index (%): 83%
[10]; Table 3
  IC50 value: 114 µg/mL (≈ 404 µM)
[11]; 100 μg/cm^2 on filter paper
  Percent inhibition ratio: 100 ± 0%
[11]; [18]
  Percent inhibition ratio: 100%
[11]; 400 μg/cm^2 on filter paper
  Percent inhibition ratio: 100 ± 0%
[12]; 25 μg/ml
  Antifungal index (%): 82%
[12]; 50 μg/ml
  Antifungal index (%): 100%
[12]; 200 μg/ml
  Antifungal index (%): 100%
[12]; Table 3
  IC50 value: <25 µg/mL
[13]; 50 μg/ml, Table 2
  Antifungal index (%): 85%
[13]; 100 μg/ml, Table 1
  Antifungal index (%): 100 ± 0%
[13]; 100 μg/ml, Table 2
  Antifungal index (%): 96%
[13]; 200 μg/ml, Table 2
  Antifungal index (%): 100%
[13]; [17]
  pIC50: 4.40
[13]; Table 3
  IC50 value: 50.6 µg/mL (≈ 179 µM)
[14]; 100 μg/ml, L. betulina, T versicolor and S. commune
  inhibition (antifungal index), span over three fungi: 41˜69%
[14]; white rot fungi
  IC50 value: less than 200 μg/ml
[15]; 100 μg/cm^2 on filter paper
  Percent inhibition ratio: 51 ± 4.6%
[15]; [18]
  Percent inhibition ratio: 51%
[15]; 400 μg/cm^2 on filter paper
  Percent inhibition ratio: 94 ± 8.5%
[15]; [19]
  Percent inhibition ratio: 94%
[16]; 25 μg/ml
  Antifungal index: 16%
[16]; 25 μg/ml, Table 2
  Antifungal index (%): 16%
[16]; 50 μg/ml, Table 2
  Antifungal index (%): 28%
[16]; 100 μg/ml
  Antifungal index: 42%
[16]; 100 μg/ml, Table 1
  Antifungal index (%): 43 ± 2.5%
[16]; 100 μg/ml, Table 2
  Antifungal index (%): 41%
[16]; 200 μg/ml, Table 2
  Antifungal index (%): 88%
[16]; [17]
  pIC50: 3.33
[16]; Table 3
  IC50 value: 137.6 µg/mL (≈ 487 µM)

From patent US20080132569A1, “Antifungal Compositions for Inhibiting Growth of Wood Decay Fungi and Use Thereof” (priority 2006, published 2008)
